The record followed here is patent publication US20240066085A1, “MATRIX METALLOPROTEASE 1 EXPRESSION INHIBITOR, SKIN EXTERNAL AGENT, AND USE FOR INHIBITION OF MATRIX METALLOPROTEASE 1 EXPRESSION” (NATIONAL UNIVERSITY CORPORATION KOBE UNIVERSITY, priority 2020, published 2024).

The test system of one assay is MMP-1 expression. The assay can be described thus: UVA-induced MMP-1 expression in HaCaT after PKCδ inhibitor pretreatment. The format is cell-based, human. To be noted: HaCaT pretreated with PKCδ inhibitor, then UVA irradiation. How it is done:
(§1) The present inventors clarified an expression mechanism of MMP-1 through an experiment. […] The experiment was performed by irradiating HaCaT (epidermal keratinocyte cell line established from a human adult under special ca 2+ concentration and temperature conditions) with ultraviolet rays (UVA).
When UVA irradiation is performed on HaCaT, the MMP-1 expression amount increases in an irradiation-dependent manner. […] Therefore, it was clarified that PKCδ is involved in expression pathway of MMP-1.

Assay [1] deals with ERK and MEK phosphorylation. The assay can be described thus: UVA-induced phosphorylation of ERK and MEK in HaCaT after PKCδ inhibitor pretreatment. The format is cell-based, human. To be noted: HaCaT pretreated with PKCδ inhibitor, then UVA irradiation. How it is done:
as §1
However, when a pretreatment of adding rotterlin being a PKCδ inhibitor to HaCaT was performed, and then UVA irradiation was performed on HaCaT, induced expression of phosphorylation of ERK and MEK was suppressed. Therefore, it was clarified that: the activity of PKCδ induces phosphorylation of MEK and ERK downstream of PKC6; and expression of MMP-1 is promoted through c-Jun and the like.

`CC(=O)c1c(O)c(C)c(O)c(Cc2c(O)c3c(c(C(=O)/C=C/c4ccccc4)c2O)OC(C)(C)C=C3)c1O` [rotterlin]: the MMP-1 expression result in the assay on MMP-1 expression was “significantly suppressed”. For the same compound, the “induced expression of phosphorylation of ERK and MEK” value in assay [1] is on record as “suppressed”.
